Each block holds one substance with its values, some of them ahead of it. Non-standard residues stand in square brackets, D forms with d. No end group written: not given here. pT = C[C@@H](OP(=O)(O)O)[C@H](N)C(=O)O
How the values were obtained:
[1] = system: PP2A‐B55α; test: Phosphate release assay (PiColorLock / malachite green) with PP2A-B55; type: biochemical, human; conditions: B55 WT, peptide 120 μM, 80 ng phosphatase, 20 min 30°C
Protocol: PP2A‐B55α holoenzymes were purified from HeLa cells stably expressing FLAG‐tagged B55α as previously described (Kruse et al, [2020]).
In vitro phosphatase assays were performed with E. coli–expressed PP1γ or PP2A‐B55α purified from HeLa cell (ATCC, RRID CVCL_0030) extracts as described previously. […] The PiColorLock inorganic phosphate detection kit (abcam) was used to detect the amount of phosphate released from the phosphorylated peptides.

[2] = molecular target: T1, PP1γ (Homo sapiens, UniProt P36873); test: MRBLE:Pep concentration-dependent PP1 binding to bead-bound RVxF peptides; conditions: bead-bound peptide, PP1 0-2,000 nM with anti-PP1 and Alexa 647 secondary antibody, 24 h at 4°C, 50 mM Tris pH 7.5, 150 mM NaCl, 0.1% TWEEN 20; median and SD across experimental replicates (n = 3); read-out: Kd, MRBLE-pep (Langmuir isotherm fit)
T1 construct: His; made in house; host or cells: E. coli BL21(DE3)
Protocol: After incubating bead‐bound peptide libraries with PP1, an unlabeled anti‐PP1 primary antibody, and an Alexa 647‐labeled secondary antibody, we washed beads and imaged again in both lanthanide and fluorescence channels to identify peptides and quantify the amount of PP1 bound (Fig 5A). Repeating these experiments over eight different PP1 concentrations enabled acquisition of concentration‐dependent binding curves; fitting the mean intensity of all beads with a given code at different concentrations of PP1γ and fitting to a Langmuir isotherm made it possible to quantify absolute affinities (Figs 5B and Appendix Fig S11).
PP1 concentration‐dependent binding to peptides on MRBLEs was done as described previously (Hein et al, [2021a]). In short, ~ 700 beads per code were mixed in and blocked in 700 μL PBS‐T with 5% BSA. PP1 (2 μM) was preincubated in binding buffer (50 mM Tris pH = 7.5, 150 mM NaCl, and 0.1% TWEEN 20) with 1 μM primary (a‐PPP1CC rabbit polyclonal, Bethyl A300‐906A) and 1 μM goat anti‐rabbit IgG Alexa Fluor 647 (Thermo Fischer, A‐21245). […]
We then computed the mean y max value across all of these peptides and refit concentration‐dependent binding curves for all peptide sequences to the Langmuir isotherm equation using this experimentally determined y max value for all peptide sequences and fitting only the K d term. […]

[3] = molecular target: T1, PP1γ; test: ITC of RVxF model peptides with PP1γ; type: binding; conditions: peptide ~450 μM titrated into PP1γ ~35 μM, 25°C, 50 mM sodium phosphate, 150 mM NaCl, 0.5 mM TCEP, pH 7.5, single-site model
Protocol: Prior to ITC experiments, both the protein and the peptides were extensively dialyzed against 50 mM sodium phosphate, 150 mM NaCl, and 0.5 mM TCEP, pH 7.5. All ITC experiments were performed on an Auto‐iTC200 instrument (Microcal, Malvern Instruments Ltd.) at 25°C. Both peptide and PP1γ concentrations were determined using a spectrometer by measuring the absorbance at 280 nm and applying values for the extinction coefficients computed from the corresponding sequences by the ProtParam program (http://web.expasy.org/protparam/). The peptides at approximately 450 μM concentration were loaded into the syringe and titrated into the calorimetric cell containing the PP1γ at ~ 35 μM. The reference cell was filled with distilled water. In all assays, the titration sequence consisted of a single 0.4 μl injection followed by 19 injections, 2 μl each, with 150 s spacing between injections to ensure that the thermal power returns to the baseline before the next injection. The stirring speed was 750 rpm. Control experiments with the peptides injected in the sample cell filled with buffer were carried out under the same experimental conditions. […] The heats per injection normalized per mole of injectant versus the molar ratio [peptide]/[PP1γ] were fitted to a single‐site model. Data were analyzed with MicroCal PEAQ‐ITC (version 1.1.0.1262) analysis software (Malvern Instruments Ltd.).

[4] = system: Venus-PP1; test: Affinity purification (pulldown) of YFP/Venus-PP1 from mitotic cells, label-free LC-MS/MS; type: binding, human
Text: (§1) We defined interactomes of PP1γ and B55α during mitosis using affinity purification of YFP‐tagged subunits and also proximity‐dependent ligation using miniTurbo to capture interactions at mitotic exit (Appendix Fig S8) (Branon et al, [2018]; Sears et al, [2019]). […] These identified proteins can constitute both regulators and substrates. […] To understand how these protein interactions might shape dephosphorylation, we first aimed at generating interactome networks and overlay regulated sites. We integrated interactomes and information from the STRING database (Szklarczyk et al, [2023]) with our regulated phosphorylation sites to generate a network of complexes and dephosphorylation sites (Fig 4C and Appendix Fig S9A). For PP1, we also integrated information on known and predicted RVxF motifs (Smith et al, [2019]). […] As an example, CASC5 (KNL1) could scaffold PP1 dephosphorylation of CENPC S261, a phosphorylation site in a nuclear localization sequence. In agreement with previous work, PP2A‐B55 regulated dephosphorylation of several nucleoporins at mitotic exit consistent with Nup153 and TPR being present in the interactomes (Cundell et al, [2016]).
(§2) PP1 and B55 cDNAs were cloned into modified versions of pcDNA5/FRT/TO (Invitrogen) to make N‐terminal fusions to YFP, BioID, or TurboID. Stable cell lines were generated into HeLa/FRT/TRex cells (kind gift from S. Taylor), and for YFP affinity, purification cells were synchronized with thymidine and released into nocodazole‐containing media to arrest them in mitosis. Cells were resuspended in lysis buffer (50 mM NaCl, 50 mM Tris 7,4, 1 mM EDTA, 0.1% NP40, 1 mM DTT, and protease inhibitor cocktail), and following sonication, the lysate was clarified by centrifugation. Cell lysate was incubated with GFP‐Trap beads (Chromotek) for 1 h, washed 3 × 1 ml with lysis buffer, and resuspended in SDS–PAGE loading buffer.
(§3) The Q‐Exactive Plus was set to perform an Orbitrap MS1 scan (R = 70 K; AGC target = 1e6) from 350 to 1,500 m/z, followed by HCD MS2 spectra on the 10 most abundant precursor ions detected by Orbitrap scanning (R = 17.5 K; AGC target = 1e5; max ion time = 50 ms) before repeating the cycle. Precursor ions were isolated for HCD by quadrupole isolation at width = 1 m/z and HCD fragmentation at 26 normalized collision energy (NCE). Charge state 2, 3, and 4 ions were selected for MS2. Precursor ions were added to a dynamic exclusion list ± 20 ppm for 15 s. […] Static modifications included carbamidomethylcysteine and variable modifications included oxidized methionine. […] Missing values were imputed from a normal distribution in Perseus to enable statistical analysis and visualization by volcano plot (Tyanova et al, [2016]). Statistical analysis was carried out in Perseus by two‐tailed Student's t‐test.

[5] = system: Venus-B55; test: Affinity purification (pulldown) of YFP/Venus-B55 from mitotic cells, label-free LC-MS/MS; type: binding, human
Text: as §1, §2, §3

T1 sequence (P36873 whole entry): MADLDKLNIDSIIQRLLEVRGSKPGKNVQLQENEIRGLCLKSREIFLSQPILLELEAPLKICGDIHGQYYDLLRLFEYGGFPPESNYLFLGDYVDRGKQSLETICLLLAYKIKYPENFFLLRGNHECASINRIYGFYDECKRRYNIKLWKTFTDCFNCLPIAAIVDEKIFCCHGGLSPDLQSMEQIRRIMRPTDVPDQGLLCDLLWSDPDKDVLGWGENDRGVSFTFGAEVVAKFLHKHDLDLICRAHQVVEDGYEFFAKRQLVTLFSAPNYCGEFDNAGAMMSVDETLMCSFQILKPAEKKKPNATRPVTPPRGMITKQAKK

Substance: INCENP WT: phosphorylated INCENP 53-67 peptide (T59), wild type (PELMPK[pT]PSQKNRRK; UniProt Q9NQS7 53-67, looked up, fragment)
- phosphate released from peptide by PP2A-B55 (in vitro dephosphorylation assay, Fig 3B) ([1]; 50 mM Tris pH 7.4, 1 mM MnCl2, 150 mM NaCl, technical repeat 1): 0,806
- phosphate released from peptide by PP2A-B55 (in vitro dephosphorylation assay, Fig 3B) ([1]; technical repeat 2): 0,858
- phosphate released from peptide by PP2A-B55 (in vitro dephosphorylation assay, Fig 3B) ([1]; technical repeat 3): 0,812

- Kd [2]: 3.4 ± 0.7 µM
Substance: AKNSRVTFSEDDEII

- Kd [3]: 190 ± 10 nM
Substance: AKNSRVTFSEDDEIW

Substance: TOP2A_HUMAN
- B55 or PP1? ([4]; assignment of the co-purified protein as interactor of Venus-B55 and/or Venus-PP1 (both pulldowns)): B55/PP1
- log2 ratio [Venus-PP1/Venus] ([4]; enrichment in Venus-PP1 pulldown over Venus control, from 3 replicates each): 4.66
- log2 IBAQ [Venus-PP1 1] ([4]; pulldown of Venus-PP1 from mitotic cells, label-free LC-MS/MS, log2 IBAQ of co-purified protein, replicate 1): 19.15
- log2 IBAQ [Venus-PP1 2] ([4]; pulldown of Venus-PP1 from mitotic cells, label-free LC-MS/MS, log2 IBAQ of co-purified protein, replicate 2): 19.33
- log2 IBAQ [Venus-PP1 3] ([4]; pulldown of Venus-PP1 from mitotic cells, label-free LC-MS/MS, log2 IBAQ of co-purified protein, replicate 3): 21.02
- log2 ratio [Venus-B55/Venus] ([5]; enrichment in Venus-B55 pulldown over Venus control, from 3 replicates each): 1.41
- log2 IBAQ [Venus-B55 1] ([5]; pulldown of Venus-B55 from mitotic cells, label-free LC-MS/MS, log2 IBAQ of co-purified protein, replicate 1): 16.03
- log2 IBAQ [Venus-B55 2] ([5]; pulldown of Venus-B55 from mitotic cells, label-free LC-MS/MS, log2 IBAQ of co-purified protein, replicate 2): 16.59
- log2 IBAQ [Venus-B55 3] ([5]; pulldown of Venus-B55 from mitotic cells, label-free LC-MS/MS, log2 IBAQ of co-purified protein, replicate 3): 15.37

— paper PMC10698503, “Phosphatase specificity principles uncovered by MRBLE:Dephos and global substrate identification” (Molecular Systems Biology, 2023)
